From US20250368649A1, “TETRAHYDROPYRIDOPYRIMIDINE PAN-KRAS INHIBITORS” (Mirati Therapeutics, Inc., priority 2022, published 2025) come the findings set out here.

A word on the IC50: it is the concentration at which inhibition is half-maximal. The low end stands for higher potency, the high end for lower potency.

In one test the test system is MKN1 cells. As to the kind of experiment: Inhibition of KRas-mediated phosphorylation of ERK (Cisbio HTRF pERK), MKN1 cells. The conditions noted are these: Homo sapiens, MKN-1, 3 hr compound incubation. The format is cell-based. The essentials: (§1)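 Phospho-ERK signal measured by HTRF after cells had been plated at 6,000/well in RPMI supplemented with 10% FBS on day 1.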
For orientation: In TR-FRET formats the signal depends on donor and acceptor labels being close together.

For a further test, the system named is PSN1 cells. As to the kind of experiment: Inhibition of KRas-mediated phosphorylation of ERK (Cisbio HTRF pERK), PSN1 cells. The test is classed as cell-based. The conditions noted are these: Homo sapiens, PSN1, 3 h, 3 hr compound incubation. The essentials: as §1
The next test relates to ASPC1 cells. Put plainly: Inhibition of KRas-mediated phosphorylation of ERK (Cisbio HTRF pERK), ASPC1 cells. The test is classed as cell-based. The conditions noted are these: Homo sapiens, ASPC1, 3 h, AsPC-1 cells; 3 hr compound incubation.
In the next test the test system is H727 cells. Put plainly: Inhibition of KRas-mediated phosphorylation of ERK (Cisbio HTRF pERK), H727 cells. The test is classed as cell-based. The conditions noted are these: Homo sapiens, NCI-H727, 3 h, 3 hr compound incubation.
A further test deals with A549 cells. As to the kind of experiment: Inhibition of KRas-mediated phosphorylation of ERK (Cisbio HTRF pERK), A549 cells. The conditions noted are these: Homo sapiens, A549, 3 h, 3 hr compound incubation. The test is classed as cell-based.
The test system of the next test is H460 cells. As to the kind of experiment: Inhibition of KRas-mediated phosphorylation of ERK (Cisbio HTRF pERK), H460 cells. The format is cell-based. The conditions noted are these: Homo sapiens, NCI-H460, 3 h, 3 hr compound incubation.
A further test relates to HCT116 cells. As to the kind of experiment: Inhibition of KRas-mediated phosphorylation of ERK (Cisbio HTRF pERK), HCT116 cells. The format is cell-based. The conditions noted are these: Homo sapiens, HCT-116, 3 h, 3 hr compound incubation.
The test system of the next test is H358 cells. As to the kind of experiment: Inhibition of KRas-mediated phosphorylation of ERK (Cisbio HTRF pERK), H358 cells. The format is cell-based. The conditions noted are these: Homo sapiens, NCI-H358, 3 h, 3 hr compound incubation.
The next test addresses KRas G12D (Homo sapiens, UniProt P01116, G12D). Put plainly: biochemical. The conditions noted are these: Binding to KRas (IC50 nM) G12D, TR-FRET displacement, KRas G12D.
The target in a further test is KRas G12R (Homo sapiens, UniProt P01116, G12R). Put plainly: biochemical. The conditions noted are these: Binding to KRas (IC50 nM) G12R, TR-FRET displacement, KRas G12R.
KRas G12R, sequence (P01116 1-169 isoform P01116-2 G12R): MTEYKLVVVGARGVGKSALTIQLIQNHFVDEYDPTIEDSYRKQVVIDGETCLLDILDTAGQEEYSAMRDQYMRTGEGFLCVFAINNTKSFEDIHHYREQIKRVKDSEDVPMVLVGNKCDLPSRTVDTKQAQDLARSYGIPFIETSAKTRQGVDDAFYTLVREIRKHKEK
In the next test the target is KRas G12V (Homo sapiens, UniProt P01116, G12V). Put plainly: biochemical. The conditions noted are these: Binding to KRas (IC50 nM) G12V, TR-FRET displacement, KRas G12V.
KRas G12V, sequence (P01116 1-169 isoform P01116-2 G12V): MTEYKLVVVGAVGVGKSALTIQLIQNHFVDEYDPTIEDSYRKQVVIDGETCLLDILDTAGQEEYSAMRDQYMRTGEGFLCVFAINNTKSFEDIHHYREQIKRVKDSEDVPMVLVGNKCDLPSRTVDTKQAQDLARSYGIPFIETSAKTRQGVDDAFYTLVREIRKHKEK

SMILES strings stand for the structures.

KRas G12D, sequence (P01116 1-169 isoform P01116-2 G12D): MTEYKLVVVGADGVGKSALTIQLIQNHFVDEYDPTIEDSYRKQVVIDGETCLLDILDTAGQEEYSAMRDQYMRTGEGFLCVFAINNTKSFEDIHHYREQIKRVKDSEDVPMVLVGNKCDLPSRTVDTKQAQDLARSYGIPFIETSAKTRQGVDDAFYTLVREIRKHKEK

As for `CCc1c(F)ccc2cc(O)cc(N3CCc4c(nc(OC[C@@]56CCCN5C[C@H](F)C6)nc4N4CCCn5nc(C(=O)N(C)C)c(O)c5C4)C3)c12` [Example 628, 5-(7-(8-ethyl-7-fluoro-3-hydroxynaphthalen-1-yl)-2-(((2R,7aS)-2-fluorotetrahydro-1H-pyrrolizin-7a(5H)-yl)methoxy)-5,6,7,8-tetrahydropyrido[3,4-d]pyrimidin-4-yl)-3-hydroxy-N,N-dimethyl-5,6,7,8-tetrahydro-4H-pyrazolo[1,5-a][1,4]diazepine-2-carboxamide], the IC50 with MKN1 cells was 1.6 nM; with PSN1 cells it was above 10000 nM; with ASPC1 cells, 2 nM; in the test with H727 cells, 13 nM; with A549 cells it was 7 nM; in the test on H460 cells, 32 nM. In addition, the IC50 in the test with HCT116 cells is 78 nM; in the test on H358 cells, 3 nM; on KRas G12D, below 2 nM; on KRas G12R it was below 2 nM; at KRas G12V, below 2 nM.
For the molecule `CCc1c(F)ccc2cc(O)cc(N3CCc4c(nc(OC[C@@]56CCCN5C[C@H](F)C6)nc4N4CCCn5nc(N)nc5C4)C3)c12` [Example 631, 4-(4-(2-amino-6,7-dihydro-5H-[1,2,4]triazolo[1,5-a][1,4]diazepin-8(9H)-yl)-2-(((2R,7aS)-2-fluorotetrahydro-1H-pyrrolizin-7a(5H)-yl)methoxy)-5,8-dihydropyrido[3,4-d]pyrimidin-7(6H)-yl)-5-ethyl-6-fluoronaphthalen-2-ol], the IC50 turned out to be 48.3 nM with MKN1 cells; 7140 nM in the test on PSN1 cells; 69 nM with ASPC1 cells; 356 nM with H727 cells; 68 nM in the test on A549 cells; 341 nM with H460 cells. The IC50 was 508 nM in the test with HCT116 cells; 24 nM in the test on H358 cells; below 2 nM on KRas G12D; below 2 nM at KRas G12R; below 2 nM on KRas G12V.
Consider `O=S1(=O)CCC2(CCCN(c3nc(OC[C@@]45CCCN4C[C@H](F)C5)nc4c3CCN(c3cc(O)cc5ccc(F)c(Cl)c35)C4)C2)N1` (stereo partly drawn) [Example 632, 7-(7-(8-chloro-7-fluoro-3-hydroxynaphthalen-1-yl)-2-(((2R,7aS)-2-fluorotetrahydro-1H-pyrrolizin-7a(5H)-yl)methoxy)-5,6,7,8-tetrahydropyrido[3,4-d]pyrimidin-4-yl)-2-thia-1,7-diazaspiro[4.5]decane 2,2-dioxide], for which the IC50 amounted to 4.1 nM with MKN1 cells; 716 nM in the test with PSN1 cells; 12 nM with ASPC1 cells; 32 nM in the test on H727 cells; 19 nM with A549 cells; 21 nM in the test on H460 cells. In addition, the IC50 in the test with HCT116 cells was 55 nM; with H358 cells, 6 nM; at KRas G12D, below 2 nM; at KRas G12R, below 2 nM; on KRas G12V, below 2 nM.
As for `CCc1c(F)ccc2cc(O)cc(N3CCc4c(nc(OC[C@@]56CCCN5C[C@H](F)C6)nc4N4CCCn5ncc(C(N)=O)c5C4)C3)c12` [Example 634, 5-(7-(8-ethyl-7-fluoro-3-hydroxynaphthalen-1-yl)-2-(((2R,7aS)-2-fluorotetrahydro-1H-pyrrolizin-7a(5H)-yl)methoxy)-5,6,7,8-tetrahydropyrido[3,4-d]pyrimidin-4-yl)-5,6,7,8-tetrahydro-4H-pyrazolo[1,5-a][1,4]diazepine-3-carboxamide], the half-inhibitory concentration (IC50) in the test on MKN1 cells was 103 nM; with PSN1 cells, above 10000 nM; in the test on ASPC1 cells, 102 nM; in the test on H727 cells it was 284 nM; in the test with A549 cells it was 346 nM; with H460 cells it was 585 nM. The IC50 in the test on HCT116 cells is 1420 nM; in the test with H358 cells, 45 nM; on KRas G12D it was below 2 nM; on KRas G12R it was below 2 nM; on KRas G12V, below 2 nM.
Turning to `CCc1c(F)ccc2cc(O)cc(N3CCc4c(nc(OC[C@@]56CCCN5C[C@H](F)C6)nc4N4CCCn5ncc(C(=O)NC)c5C4)C3)c12` [Example 635, 5-(7-(8-ethyl-7-fluoro-3-hydroxynaphthalen-1-yl)-2-(((2R,7aS)-2-fluorotetrahydro-1H-pyrrolizin-7a(5H)-yl)methoxy)-5,6,7,8-tetrahydropyrido[3,4-d]pyrimidin-4-yl)-N-methyl-5,6,7,8-tetrahydro-4H-pyrazolo[1,5-a][1,4]diazepine-3-carboxamide], the IC50 with MKN1 cells was 158 nM; in the test on PSN1 cells, above 10000 nM; in the test on ASPC1 cells, 134 nM; in the test with H727 cells, 230 nM; with A549 cells, 609 nM; in the test on H460 cells, 567 nM. For the same molecule, the 50% inhibitory concentration (IC50) is 1320 nM in the test with HCT116 cells; 87 nM in the test with H358 cells; below 2 nM at KRas G12D; below 2 nM on KRas G12R; below 2 nM at KRas G12V.
Take `CCc1c(F)ccc2cc(O)cc(N3CCc4c(nc(OC[C@@]56CCCN5C[C@H](F)C6)nc4N4CCCn5ncc(C(=O)N(C)C)c5C4)C3)c12` [Example 636, 5-(7-(8-ethyl-7-fluoro-3-hydroxynaphthalen-1-yl)-2-(((2R,7aS)-2-fluorotetrahydro-1H-pyrrolizin-7a(5H)-yl)methoxy)-5,6,7,8-tetrahydropyrido[3,4-d]pyrimidin-4-yl)-N,N-dimethyl-5,6,7,8-tetrahydro-4H-pyrazolo[1,5-a][1,4]diazepine-3-carboxamide]: the half-inhibitory concentration (IC50) in the test with MKN1 cells is 81.1 nM; in the test on PSN1 cells, above 10000 nM; in the test with ASPC1 cells, 29 nM; in the test on H727 cells it was 153 nM; with A549 cells it was 200 nM; with H460 cells it was 418 nM. Moreover, the IC50 with HCT116 cells is 1110 nM; with H358 cells, 45 nM; at KRas G12D, below 2 nM; on KRas G12R it was below 2 nM; on KRas G12V it was below 2 nM.
With `CCc1c(F)ccc2cc(O)cc(N3CCc4c(nc(OC[C@@]56CCCN5C[C@H](F)C6)nc4N4CCCn5ncc(C)c5C4)C3)c12` [Example 641, 5-ethyl-6-fluoro-4-(2-(((2R,7aS)-2-fluorotetrahydro-1H-pyrrolizin-7a(5H)-yl)methoxy)-4-(3-methyl-7,8-dihydro-4H-pyrazolo[1,5-a][1,4]diazepin-5(6H)-yl)-5,8-dihydropyrido[3,4-d]pyrimidin-7(6H)-yl)naphthalen-2-ol], the concentration for half-maximal inhibition (IC50) in the test on MKN1 cells was 303 nM; in the test with PSN1 cells, above 10000 nM; in the test with ASPC1 cells it was 179 nM; in the test with H727 cells, 216 nM; with A549 cells, 225 nM; in the test on H460 cells it was 481 nM. Also, the 50% inhibitory concentration (IC50) with HCT116 cells was 1010 nM; in the test with H358 cells it was 109 nM; at KRas G12D, below 2 nM; on KRas G12R, below 2 nM; at KRas G12V it was 2 nM.
For `CCc1c(F)ccc2cc(O)cc(N3CCc4c(nc(OC[C@@]56CCCN5C[C@H](F)C6)nc4N4CCCn5ncc(Cl)c5C4)C3)c12` [Example 642, 4-(4-(3-chloro-7,8-dihydro-4H-pyrazolo[1,5-a][1,4]diazepin-5(6H)-yl)-2-(((2R,7aS)-2-fluorotetrahydro-1H-pyrrolizin-7a(5H)-yl)methoxy)-5,8-dihydropyrido[3,4-d]pyrimidin-7(6H)-yl)-5-ethyl-6-fluoronaphthalen-2-ol], the IC50 is 120 nM with MKN1 cells; above 10000 nM in the test with PSN1 cells; 59 nM in the test with ASPC1 cells; 200 nM in the test with H727 cells; 145 nM with A549 cells; 325 nM with H460 cells. Further, the 50% inhibitory concentration (IC50) with HCT116 cells is 738 nM; in the test with H358 cells, 105 nM; on KRas G12D it was below 2 nM; on KRas G12R, 3 nM; at KRas G12V, below 2 nM.
With `CCc1c(F)ccc2cc(O)cc(N3CCc4c(nc(OC[C@@]56CCCN5C[C@H](F)C6)nc4N4CCCC5(CCS(=O)(=O)N5)C4)C3)c12` (stereo partly drawn) [Example 643, 7-(7-(8-ethyl-7-fluoro-3-hydroxynaphthalen-1-yl)-2-(((2R,7aS)-2-fluorotetrahydro-1H-pyrrolizin-7a(5H)-yl)methoxy)-5,6,7,8-tetrahydropyrido[3,4-d]pyrimidin-4-yl)-2-thia-1,7-diazaspiro[4.5]decane 2,2-dioxide], the 50% inhibitory concentration (IC50) in the test with MKN1 cells came out at 39.9 nM; in the test on PSN1 cells it was 4880 nM; with ASPC1 cells, 27 nM; with H727 cells, 211 nM; in the test on A549 cells, 266 nM; with H460 cells, 67 nM. Further, the 50% inhibitory concentration (IC50) was 312 nM in the test on HCT116 cells; 30 nM with H358 cells; below 2 nM on KRas G12D; below 2 nM on KRas G12R; below 2 nM on KRas G12V.
